Results from patent US9296741B2, “Bromodomain inhibitors” (priority 2012, dated 2016).
pEC50, pKi: −log10 of the molar value.

Columns and labels:
[1] = test system: breast cancer cell line MX-1; experiment: MX-1 cell line proliferation assay; format: cell-based, human; details: Homo sapiens, MX1, 72 h; MX-1 cells, 3-day proliferation, Cell Titer Glo; read-out: Cellular proliferation: EC50
[2] = molecular target: human BRD4 second bromodomain (BDII_E352-M457) (Homo sapiens (Human), UniProt O60885); experiment: TR-FRET bromodomain binding assay, BRD4 second bromodomain
[3] = Human liver microsome stability assay; format: in vitro ADME; details: both sexes, human, microsomes, pH 7.4
[4] = molecular target: human BRD4 first bromodomain (BDI_K57-E168) (Homo sapiens (Human), UniProt O60885); experiment: TR-FRET bromodomain binding assay, BRD4 first bromodomain
[5] = Mouse liver microsome stability assay; format: in vitro ADME; details: male, CD1, mouse, microsomes, pH 7.4
[6] = Rat liver microsome stability assay; format: in vitro ADME; details: rat liver microsomes (male Sprague-Dawley), 0.5 μM test compound, 0.25 mg/mL microsomal protein, pH 7.4, 37° C.; read-out: Stability in rat liver microsomes (t1/2 in minutes)

Compound	pEC50 [1]	pKi [2]	half-life at 0.5 μM [3] [min]	pKi [4]	half-life at 0.5 μM [5] [min]	half-life at 0.5 μM [6] [min]
CC(=O)Nc1ccc(Oc2ccccc2)c(-c2cn(C)c(=O)c3[nH]ccc23)c1 [Example 6, N-[3-(6-methyl-7-oxo-6,7-dihydro-1H-pyrrolo[2,3-c]pyridin-4-yl)-4-phenoxyphenyl]acetamide]	7.34	8.24	30	8.28	3	7
Cn1cc(-c2cc(NS(=O)(=O)CCF)ccc2Oc2ccc(F)cc2F)c2cc[nH]c2c1=O [Example 64, N-[4-(2,4-difluorophenoxy)-3-(6-methyl-7-oxo-6,7-dihydro-1H-pyrrolo[2,3-c]pyridin-4-yl)phenyl]-2-fluoroethanesulfonamide]	6.11	7.20		7.27	4	3
CCOC(=O)c1cc2c(-c3cc(N)ccc3Oc3ccccc3)nn(C)c(=O)c2[nH]1 [Example 74, ethyl 4-(5-amino-2-phenoxyphenyl)-6-methyl-7-oxo-6,7-dihydro-1H-pyrrolo[2,3-d]pyridazine-2-carboxylate]	6.56		17		5	3
CCNc1ccc(Oc2ccccc2)c(-c2nn(C)c(=O)c3[nH]c(C(=O)OCC)cc23)c1 [Example 75, ethyl 4-[5-(ethylamino)-2-phenoxyphenyl]-6-methyl-7-oxo-6,7-dihydro-1H-pyrrolo[2,3-d]pyridazine-2-carboxylate]	6.32		9		4	3
CCN(C)C(=O)c1cc2c(-c3cc(NS(C)(=O)=O)ccc3Oc3ccccc3)nn(C)c(=O)c2[nH]1 [Example 83, N-ethyl-N,6-dimethyl-4-{5-[(methylsulfonyl)amino]-2-phenoxyphenyl}-7-oxo-6,7-dihydro-1H-pyrrolo[2,3-d]pyridazine-2-carboxamide]	6.37	7.37		7.68	43	3
CCCS(=O)(=O)Nc1ccc(OC2CCOC2)c(-c2cn(C)c(=O)c3[nH]ccc23)c1 (centres unmarked) [Example 92, N-[3-(6-methyl-7-oxo-6,7-dihydro-1H-pyrrolo[2,3-c]pyridin-4-yl)-4-(tetrahydrofuran-3-yloxy)phenyl]propane-1-sulfonamide]	7.08		97		11	20
CNS(=O)(=O)c1cnc(NC2CCCCC2)c(-c2cn(C)c(=O)c3[nH]ccc23)c1 [Example 97, 6-(cyclohexylamino)-N-methyl-5-(6-methyl-7-oxo-6,7-dihydro-1H-pyrrolo[2,3-c]pyridin-4-yl)pyridine-3-sulfonamide]	7.85		26		28	9
Cn1cc(-c2cc(NS(=O)(=O)CC(F)(F)F)ccc2OC2CCOCC2)c2cc[nH]c2c1=O [Example 100, 2,2,2-trifluoro-N-[3-(6-methyl-7-oxo-6,7-dihydro-1H-pyrrolo[2,3-c]pyridin-4-yl)-4-(tetrahydro-2H-pyran-4-yloxy)phenyl]ethanesulfonamide]	6.97		77		60	71
CCCS(=O)(=O)Nc1ccc(OC2CCC(F)(F)CC2)c(-c2cn(C)c(=O)c3[nH]ccc23)c1 [Example 102, N-{4-[(4,4-difluorocyclohexyl)oxy]-3-(6-methyl-7-oxo-6,7-dihydro-1H-pyrrolo[2,3-c]pyridin-4-yl)phenyl}propane-1-sulfonamide]	7.21		36		8	3
Cn1cc(-c2cc(NS(=O)(=O)CC(F)(F)F)ccc2OC2CCC(F)(F)CC2)c2cc[nH]c2c1=O [Example 103, N-{4-[(4,4-difluorocyclohexyl)oxy]-3-(6-methyl-7-oxo-6,7-dihydro-1H-pyrrolo[2,3-c]pyridin-4-yl)phenyl}-2,2,2-trifluoroethanesulfonamide]	7.47		47		37	16
CCCS(=O)(=O)Nc1ccc(OC2CCCOC2)c(-c2cn(C)c(=O)c3[nH]ccc23)c1 (centres unmarked) [Example 106, N-[3-(6-methyl-7-oxo-6,7-dihydro-1H-pyrrolo[2,3-c]pyridin-4-yl)-4-(tetrahydro-2H-pyran-3-yloxy)phenyl]propane-1-sulfonamide]	7.33		39		4	8
Cn1cc(-c2cc(NS(=O)(=O)CC(F)(F)F)ccc2OC2CCCOC2)c2cc[nH]c2c1=O (centres unmarked) [Example 107, 2,2,2-trifluoro-N-[3-(6-methyl-7-oxo-6,7-dihydro-1H-pyrrolo[2,3-c]pyridin-4-yl)-4-(tetrahydro-2H-pyran-3-yloxy)phenyl]ethanesulfonamide]	7.51		71		8	16
CNS(=O)(=O)c1cnc(Nc2ccccc2)c(-c2cn(C)c(=O)c3[nH]ccc23)c1 [Example 112, N-methyl-5-(6-methyl-7-oxo-6,7-dihydro-1H-pyrrolo[2,3-c]pyridin-4-yl)-6-(phenylamino)pyridine-3-sulfonamide]	6.62		49		51	28
Cn1cc(-c2cc(S(C)(=O)=O)ccc2Oc2cccc3cnccc23)c2cc[nH]c2c1=O [Example 161, 4-[2-(isoquinolin-5-yloxy)-5-(methylsulfonyl)phenyl]-6-methyl-1,6-dihydro-7H-pyrrolo[2,3-c]pyridin-7-one]	6.98		5		4	10
CN(C)c1cccc(Oc2ccc(S(C)(=O)=O)cc2-c2cn(C)c(=O)c3[nH]ccc23)c1 [Example 180, 4-{2-[3-(dimethylamino)phenoxy]-5-(methylsulfonyl)phenyl}-6-methyl-1,6-dihydro-7H-pyrrolo[2,3-c]pyridin-7-one]	6.94		12		5	7
CC1CC1COc1ccc(S(C)(=O)=O)cc1-c1cn(C)c(=O)c2[nH]ccc12 (centres unmarked) [Example 223, 6-methyl-4-{2-[(2-methylcyclopropyl)methoxy]-5-(methylsulfonyl)phenyl}-1,6-dihydro-7H-pyrrolo[2,3-c]pyridin-7-one]	7.88		54		48	24
Cn1cc(-c2cc(S(C)(=O)=O)ccc2Oc2ccc(S(C)(=O)=O)cc2)c2cc[nH]c2c1=O [Example 270, 6-methyl-4-{5-(methylsulfonyl)-2-[4-(methylsulfonyl)phenoxy]phenyl}-1,6-dihydro-7H-pyrrolo[2,3-c]pyridin-7-one]	6.38		> 120		> 120	> 120
CN(C)Cc1cc2c(-c3cc(S(C)(=O)=O)ccc3Oc3ccc(F)cc3F)cn(C)c(=O)c2[nH]1 [Example 279, 4-[2-(2,4-difluorophenoxy)-5-(methylsulfonyl)phenyl]-2-[(dimethylamino)methyl]-6-methyl-1,6-dihydro-7H-pyrrolo[2,3-c]pyridin-7-one]	6.44	6.88		7.50	91	41
CCS(=O)(=O)Nc1ccc(Oc2ccc(F)cc2F)c(-c2cn(C)c(=O)c3[nH]ncc23)c1 [Example 320, N-[4-(2,4-difluorophenoxy)-3-(6-methyl-7-oxo-6,7-dihydro-1H-pyrazolo[3,4-c]pyridin-4-yl)phenyl]ethanesulfonamide]	7.73		> 120		116	57
CCS(=O)(=O)c1ccc(OCC2CC2)c(-c2cn(C)c(=O)c3[nH]ncc23)c1 [Example 323, 4-[2-(cyclopropylmethoxy)-5-(ethylsulfonyl)phenyl]-6-methyl-1,6-dihydro-7H-pyrazolo[3,4-c]pyridin-7-one]	7.42		> 120		> 120	> 120
CCS(=O)(=O)c1ccc(N2CCN(C)CC2)c(-c2cn(C)c(=O)c3[nH]ccc23)c1 [Example 331, 4-[5-(ethylsulfonyl)-2-(4-methylpiperazin-1-yl)phenyl]-6-methyl-1,6-dihydro-7H-pyrrolo[2,3-c]pyridin-7-one]	6.32		> 120		> 120	> 120
Cn1cc(-c2cc(-c3cccc(F)c3)ccc2OCC2CC2)c2cc[nH]c2c1=O [Example 334, 4-[4-(cyclopropylmethoxy)-3′-fluorobiphenyl-3-yl]-6-methyl-1,6-dihydro-7H-pyrrolo[2,3-c]pyridin-7-one]	6.29	5.93	34	6.18	21	
Cn1cc(-c2cc(CS(C)(=O)=O)ccc2Nc2ccc(F)cc2)c2cc[nH]c2c1=O [Example 335, 4-{2-[(4-fluorophenyl)amino]-5-[(methylsulfonyl)methyl]phenyl}-6-methyl-1,6-dihydro-7H-pyrrolo[2,3-c]pyridin-7-one]	7.65		35		54	34
